Test in all cases: inhibition of tumour cell growth, NCI panel, 48 h
Test [1] concerns HCT-116 colon.
Test [2] concerns HS 578T breast.
Test [3] concerns MALME-3M melanoma.
For test [4], the system named is NCI-H522 lung.
For test [5], the system named is BT-549 breast.
The test system of test [6] is RPMI-8226 leukemia.
Test [7] has as its system NCI/ADR-RES ovarian.
Test [8] has as its system M14 melanoma.
Test [9] relates to NCI-H460 lung.
In test [10] the test system is RXF 393 renal.

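Each compound was tested at five concentrations against cells in 96-well plates for 48 hours. Definition used: TGI = concentration required for complete inhibition of growth.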

For the molecule `CC(=O)NC1C(CO)O[C@@H]2OC(C)(C)O[C@H]12` (some centres not stated), the TGI in [1], in test [2], in [3], in test [4], in test [5] and in test [6] was greater than 100 µM in each case. Besides, the TGI in test [7], in [8] and in [9] was greater than 100 µM throughout.

For `NC(N)=N/N=C/c1c(-c2ccc([N+](=O)[O-])cc2)nc2sccn12`, the TGI in test [1] came to 3.05 µM; in test [2], 4.14 µM; in [4], 3.83 µM; in test [5], 3.44 µM; in test [10] it was 7.55 µM; in test [6], 28.3 µM. For the same molecule, the TGI was greater than 100 µM in test [7], 3.38 µM in test [8] and 4.03 µM in test [9].

Regarding `OCC1OC(n2cnc3cccnc32)CC1O` (configuration not stated), the TGI in test [1], in test [2], in test [4], in [5], in test [10] and in test [7] was greater than 100 µM each time. Further, the TGI in test [8] and in [9] was greater than 100 µM in each case.

In the case of `CN(C(=O)C1(C(=O)C=[N+]=[N-])CC1)c1ccccc1`, the TGI in [1], in test [2], in test [3], in test [4], in test [5] and in test [10] was greater than 100 µM throughout. The TGI in [6], in [7], in test [8] and in test [9] was greater than 100 µM throughout.

On to `CCOC(=O)c1ccc2nc(NC(=O)COC(=O)CSc3nc(C)cc(C)n3)sc2c1`, for which the TGI in [1], in [2], in test [3], in test [4], in test [5] and in test [10] was greater than 100 µM each time. For the same molecule, the TGI in test [6], in [7], in test [8] and in test [9] was greater than 100 µM each time.

With `O=C(Nn1c(-c2ccccc2)nc2ccccc2c1=O)c1ccccn1`, the TGI in test [1], in test [2], in test [3], in [4], in [5] and in test [10] was greater than 100 µM each time. Further, the TGI in test [6], in [7], in test [8] and in test [9] was greater than 100 µM in each case.

With `COC(=O)C(/C(=N/NC(=O)c1ccncc1)C(=O)Nc1ccccc1OC)c1nc2ccc(Cl)cc2[nH]c1=O` (configuration not stated), the TGI in [1], in test [2], in test [3], in [4], in [5] and in test [10] was greater than 100 µM in each case. Also, the TGI in test [6], in test [7], in [8] and in [9] was greater than 100 µM throughout.

As for `C/C(=C/CO[Si](C)(C)C(C)(C)C)C(=O)N(C)c1ccccc1I`, the TGI in test [1] is 25.8 µM; in [2], 43.5 µM; in test [3], 28.3 µM; in test [4], 31.5 µM; in [5], 35.8 µM; in [10], 31.9 µM. Besides, the TGI is 77.9 µM in test [6], 37.1 µM in test [7], 28.6 µM in [8] and 30 µM in test [9].

`COC(=O)c1sc(=S)sc1SCc1ccccc1CSc1sc(=S)sc1C(=O)OC`: the TGI in test [1], in [2], in test [3], in test [4], in [5] and in test [10] was greater than 100 µM in each case. Also, the TGI in test [7], in test [8] and in test [9] was greater than 100 µM each time.

Regarding `CCOC(=O)c1nc2c3c(ncn2n1)Oc1c(c(-c2ccccc2)nn1-c1ccccc1)C3c1ccc(Cl)cc1` (configuration not stated), the TGI in test [1], in [2], in [3], in test [4], in [5] and in test [10] was greater than 100 µM throughout. Besides, the TGI in test [6], in [7], in test [8] and in test [9] was greater than 100 µM throughout.

On to `COC(=O)C1=C(O)C(C(=O)OC)[C@@]2(O)[C@@H](C(=O)OC)C(c3ccc(OC(=O)/C(=C/c4ccc(Cl)cc4)c4ccc(Cl)cc4)cc3)C[C@@H]1[C@@H]2C(=O)OC` (some centres not stated), for which the TGI in test [1], in test [2], in test [3], in [4], in test [5] and in test [10] was greater than 100 µM throughout. In addition, the TGI in test [7] was greater than 100 µM; in [8] it was 41.8 µM; in [9], greater than 100 µM.

Regarding `CC(=O)O[C@H]1C#C/C=C\C#CC[C@@H]2C(=O)N(C(=O)OC(C)(C)C)[C@@H]12`, the TGI is greater than 89.4 µM in [1]; greater than 88.7 µM in test [2]; greater than 100 µM in [3]; 47.8 µM in test [4]; greater than 81.4 µM in [5]; 56.4 µM in test [10]. Also, the TGI is greater than 75.8 µM in [6], 74.7 µM in test [7], greater than 100 µM in [8] and 38.7 µM in test [9].

As for `CCCCC[C@@H]1OCO[C@@]2(C)/C=C(C)/C=C/C(=O)O[C@H]([C@@H](C)[C@@H](O)[C@H](C)[C@@]3(O)C[C@@H](O[C@H]4C[C@@H](O)[C@H](O)[C@@H](C)O4)[C@H](C)[C@@H](C)O3)[C@@H](OC)/C=C/C=C(\C)C[C@@H]1[C@@H]2O` (stereo in doubt), the TGI in test [1] is 0.609 µM; in test [2], 50 µM; in [3], 0.308 µM; in test [4] it was 7.46 µM; in [5], 16.5 µM; in test [10] it was 1.19 µM. In addition, the TGI in test [6] is 50 µM; in test [7], 15.8 µM; in [8] it was less than 0.005 µM; in test [9], 5.3 µM.

On to `Cc1cc2ccccc2c[n+]1CC(O)C[n+]1cc2ccccc2cc1C`, for which the TGI in [1], in [2], in test [3], in test [4], in test [5] and in test [10] was greater than 100 µM each time. For the same molecule, the TGI in [6], in [7], in test [8] and in test [9] was greater than 100 µM each time.

In the case of `Cc1cc2ccccc2n1CC(=O)NCC(C)C`, the TGI in test [1], in [2], in [3], in test [4], in [5] and in [10] was greater than 100 µM throughout. The TGI in test [6], in test [7], in [8] and in test [9] was greater than 100 µM in each case.

Turning to `C/C(O)=C(\C=N\C(N)=S)C(=O)Nc1ccccc1C`, the TGI in test [1], in test [2], in test [4], in test [5], in test [10] and in test [6] was greater than 100 µM throughout. Moreover, the TGI in test [7], in test [8] and in test [9] was greater than 100 µM each time.

On to `O=C(O)C(CCc1ccccn1)c1ccccc1` (configuration not stated), for which the TGI in [1], in test [2], in test [3], in [4], in [5] and in test [10] was greater than 100 µM in each case. Also, the TGI in test [6], in test [7], in [8] and in test [9] was greater than 100 µM each time.

Turning to `CN(CCc1ccc(Cl)c(Cl)c1)[C@H]1CCCC[C@H]1N1CCCC1`, the TGI in [1], in test [2], in [3], in test [4], in test [5] and in [10] was greater than 100 µM each time. Besides, the TGI in test [6], in [7] and in test [8] was greater than 100 µM throughout.

As to `Cc1ccc(C(=O)N(C(C)C)C(C)C)cc1N=NN(C)C`, the TGI was greater than 100 µM in test [1]; greater than 100 µM in [2]; greater than 100 µM in [3]; 43.2 µM in test [4]; greater than 100 µM in test [5]; greater than 100 µM in test [6]. Besides, the TGI in test [7], in test [8] and in [9] was greater than 100 µM throughout.

With `Cc1cccc(C(C)(C)C)c1NC(=O)/C(Cc1nc2ccc([N+](=O)[O-])cc2[nH]c1=O)=N/NC(=O)C[N+](C)(C)C`, the TGI in [1], in [2], in test [3], in test [4], in test [5] and in test [6] was greater than 100 µM in each case. The TGI in test [7], in [8] and in test [9] was greater than 100 µM in each case.

Consider `Nc1nc(Cl)cc(N=Nc2ccccc2)n1`, for which the TGI in [1] was 32.2 µM; in test [2] it was greater than 100 µM; in test [3] it was greater than 100 µM; in [4], greater than 100 µM; in [5], greater than 100 µM; in test [10], 97.2 µM. In addition, the TGI in test [6], in test [7] and in [8] was greater than 100 µM each time.

Consider `Cc1cc(Cc2c(F)c(F)c(Cc3cc(C)no3)c(F)c2F)on1`, for which the TGI in test [1], in test [2], in test [3], in test [4], in [5] and in [10] was greater than 100 µM in each case. Moreover, the TGI in [6], in [7] and in [8] was greater than 100 µM each time.

As for `CCN(CC)CCO/N=C1\CC[C@H]2[C@@H]3CC=C4C[C@@H](O)CC[C@]4(C)[C@H]3CC[C@]12C`, the TGI is 30.2 µM in [1]; greater than 100 µM in test [2]; 29.7 µM in [3]; 34 µM in test [4]; 44.4 µM in test [5]; 34.1 µM in test [10]. Further, the TGI in test [6] is 47.6 µM; in [7] it was greater than 100 µM; in [9] it was 29.8 µM.

Take `O=C1NC(=S)N/C1=C/c1ccccc1O`: the TGI in test [1], in test [2], in test [3], in [4], in test [5] and in test [10] was greater than 100 µM throughout. Moreover, the TGI in test [6], in test [7] and in test [8] was greater than 100 µM each time.

As to `O=C(C1=C(C(=O)c2ccccc2)SC2(S1)C(C(=O)c1ccccc1)=C(C(=O)c1ccccc1)Sc1c2ssc1=O)c1ccccc1`, the TGI was greater than 100 µM in test [1]; greater than 100 µM in test [2]; greater than 100 µM in test [3]; 85.5 µM in test [4]; greater than 100 µM in test [5]; greater than 100 µM in [10]. In addition, the TGI in test [7], in test [8] and in [9] was greater than 100 µM in each case.

For `CC(C)CCC[C@@H](C)[C@H]1CC[C@H]2[C@@H]3CC=C4C[C@@H](OC(=O)c5cccc6c(=O)c7ccccc7[nH]c56)CC[C@]4(C)[C@H]3CC[C@]12C`, the TGI in [2], in [3], in [4], in test [5], in test [10] and in test [6] was greater than 75 µM each time. The TGI in [7] and in [8] was greater than 75 µM each time.

In the case of `CCc1nnc(-n2c(C)nc3cc(Cl)ccc3c2=O)s1`, the TGI in test [1] is greater than 100 µM; in test [2], greater than 100 µM; in test [3], 93.1 µM; in [4], 75.4 µM; in test [5], greater than 100 µM; in [10] it was greater than 100 µM. In addition, the TGI in [7], in test [8] and in [9] was greater than 100 µM in each case.

The values are drawn from PubChem BioAssay (NCI).
